The values that follow come from patent US5432064A, “Process for dephosphorylating linear polynucleotide substrate with prosphatase form aspergillus niger” (Board of Regents of the University of Nebraska, priority 1992, dated 1995).

For this assay, the system named is Aspergillus niger heat-labile phosphatase (4-nitrophenylphosphatase), purified, strain NRRL-3. The experiment in a line: A. niger phosphatase activity assay with 4-NPP as substrate (formation of p-nitrophenol at 400 nm). Type of assay: biochemical. Here is the method: A. niger phosphatase activity was routinely determined by monitoring, in a spectrophotometer set at an absorbance wavelength of 400 nm, the formation of p-nitrophenol generated by the hydrolysis of 4-NPP (purchased from Calbiochem). Non-enzymatic hydrolysis controls were routinely included. The phosphatase assay contained the following in a total volume of 1.0 ml: 8 mM 4-NPP; 25 mM Tris-HCl (pH 8.0); and 5 mM MgCl2. The reaction, which was initiated by addition of the crude, mycelium-free supernatant fluid mentioned above, was carried out at 30° C. in a Varian DMS 70 spectrophotometer with a wavelength bandpass of 2 nanometers. Molar absorptivity of 4-nitrophenol at pH 8.0 was 1.62×10^4 M^-1 cm^-1.
To further examine one of these potential substrates at a greater level of sensitivity, the enzyme was incubated with [gamma-^32 P]ATP under identical conditions and assayed for the liberation of ^32 Pi. No liberation above background was detected and hydrolysis of ATP appeared to occur at a rate less than one/ten-millionth of that observed with 4-NPP.
Prospective inhibitors were added to the standard assay with 4-NPP as substrate and inhibition was monitored and expressed as percent inhibition of the untreated sample (TABLE 3).

The mark [1] stands for this setting: 1 mM inhibitor, incubated with the phosphatase for 15 minutes at room temperature prior to assay, 4-NPP as substrate.
Where [2] appears, read: 1 mM inhibitor, standard assay with 4-NPP as substrate.
Setting [3] is: 10 mM inhibitor, standard assay with 4-NPP as substrate.

With `O=C(O)CI` [iodoacetate], the “Inhibition (%)” value under setting [1] is recorded as 96%.

Turning to `CCN1C(=O)C=CC1=O` [N-ethylmaleimide], the “Inhibition (%)” value under setting [1] is recorded as 75%. Turning to `[F-].[Na+]` [sodium fluoride], the “Inhibition (%)” value by setting is: under setting [2], 22%; under setting [3], 80%. As to `O=P(O)(O)O` [orthophosphate], the “Inhibition (%)” value under setting [3] came out at 39%. Turning to `Nc1ncnc2c1ncn2[C@@H]1O[C@H](COP(=O)(O)OP(=O)(O)OP(=O)(O)O)[C@@H](O)[C@H]1O` [ATP, adenosine triphosphate], the Ki (competitive inhibition of hydrolysis of 4-NPP, read-out: Ki for ATP) was 1.3 mM. As for `O=P(O)(O)OP(=O)(O)O` [PPi, inorganic pyrophosphate], the “Inhibition (%)” value is, setting by setting: under setting [2], 4%; under setting [3], 56%.
